Laboratory results reported in US20190004070A9 (JNC CORPORATION, priority 2012, published 2019).
“Also recorded” adds a separate entry of the source.

B1: abciximab: Immunoglobulin Fragment Fab Fragment Chimeric monoclonal antibody 7E3 (GP IIbIIIa receptor blocker) (antibody, chains of the INN, looked up, V domains shown)
VH: EVQLQQSGTVLARPGASVKMSCEASGYTFTNYWMHWVKQRPGQGLEWIGAIYPGNSDTSYIQKFKGKAKLTAVTSTTSVYMELSSLTNEDSAVYYCTLYDGYYVFAYWGQGTLVTVSA
VL: EIVLTQSPVTLSVTPGDSVSLSCRASRDISNNLHWFQQTSHESPRLLIKYASQSMSGIPSRFSGSGSGTDFTLSINSVETEDFGMYFCQQTNSWPYTFGGGTKLEIK
modifications: Fab

Key:
platelet aggregation = conditions: Aspirin doses greater than 100 mg; cited from earlier work
[1] = system: PRP samples of healthy donors; test: LTAAs using synthetic collagen with anti-platelet medication added to the PRP sample (Example 2); assay type: cell-based; conditions: synthetic collagen 12.5, 25, 50, 100 ng/mL
Procedure: Two healthy donors supplied the PRP samples. A panel of four different synthetic collagen concentrations were tested (12.5 ng/mL, 25 ng/mL, 50 ng/mL and 100 ng/mL Abciximab was added to the each of the four panels of different synthetic collagen concentrations. In one panel, saline was added as the control to each of the four synthetic collagen concentrations. In the second panel, 12.5 μg/mL (micrograms/mL) of abciximab was added to each of the four synthetic collagen concentrations. In a third panel, 25 μg/mL of abciximab was added to each of the four synthetic collagen concentrations. In a fourth panel, 50 μg/mL of abciximab was added to each of the four synthetic collagen concentrations. LTAAs were run for each and the PA, PS, SA, SS AUC, LP, DA, MA and FA was measured for each. The tests were run on each of the donors' samples.
Two healthy donors supplied the PRP samples. […] LTAAs were run for each and the PA, PS, SA, SS AUC, LP, DA, MA and FA was measured for each. […]

[2] = system: human platelet rich plasma; test: Agonist-induced platelet aggregation in normal and aspirinized PRP, PAP 8E platelet aggregometer (Example 1); assay type: cell-based; conditions: for ability to detect the drug in the presence of aspirin: aspirinized PRP, synthetic collagen 8-64 ng/mL; for effect on biological collagen-induced aggregation: Bio/Data and Chrono Log biological collagen; for effect on Bio/Data collagen-induced aggregation: Bio/Data collagen 190 μg/mL; for effect on arachidonic acid-induced aggregation: arachidonic acid 500 μg/mL; for antiplatelet effect in synthetic collagen-induced aggregation at lower concentrations: synthetic collagen 32 ng/mL and lower (32, 16, 8 ng/mL); for effect on 64 ng/mL synthetic collagen-induced aggregation: synthetic collagen 64 ng/mL
Procedure: ADP was obtained from Bio/Data Corporation, Horsham, Pa. Each vial was reconstituted with 1 mL of deionized water to make a 100 μM working solution. The final concentration of ADP in the aggregation cuvette was 10 μM.
Arachidonic acid was obtained from Bio/Data Corporation, Horsham, Pa. Each vial was reconstituted with 0.5 mL deionized water to make a 5 mg/mL working solution. The final concentration of arachidonic acid in the aggregation cuvette was 500 μg/mL.
Biological Collagen was obtained from Bio/Data Corporation, Horsham, Pa. Each vial was reconstituted with 0.5 mL deionized water to make a 1.9 mg/mL working solution. The final concentration of Bio/Data collagen in the aggregation cuvette was 190 μg/mL.
Biological Collagen was obtained from Chrono Log Corporation, Havertown, Pa. as a 1 mg/mL solution. A working solution of 100 μg/mL was made by dilution with physiologic saline. The final concentration of Chrono Log collagen in the aggregation cuvette was 10 μg/mL.
Synthetic collagen was provided by JNC Corporation, Yokohama, Japan at working concentrations of 80, 160, 320 and 640 ng/mL. The final concentrations of synthetic collagen in the aggregation cuvette were 64, 32, 16 and 8 ng/mL.
Approval for the collection of whole blood from healthy human volunteers was granted from the Institutional Review Board of the Health Sciences Division of Loyola University Chicago. Whole blood was drawn using a double syringe technique from the antecubital vein and anticoagulated by the addition of 1 part 3.2% sodium citrate to (9 parts blood to 1 part citrate). Citrated blood was centrifuged at 80×g at room temperature for 15 minutes to make platelet rich plasma (PRP). Supernatant PRP was collected and kept at room temperature in capped tubes. The remaining citrated blood was recentrifuged at 1,100×g for 15 minutes to make platelet poor plasma (PPP). The platelet count of the PRP was determined using an ICHOR II Analyzer, Helena Laboratories, Beaumont, Tex. Platelet count in the PRP was adjusted to 250,000-300,000/μl by the addition of homologous PPP.
Six blood donors were used for this study. Each was drawn on separate days for the ‘non-aspirinized’ and ‘aspirinized’ portions of the protocol. For the ‘non-aspirinized’ portion of the protocol, one donor ([…]) was excluded from the final analysis as the aggregation responses were markedly different from that of the other 5 donors.
Platelet aggregation was measured using a PAP 8E platelet aggregometer (Bio/Data). Each well was blanked using PPP. 25 μl of saline or antiplatelet drug and 200 μl of PRP were added to cuvettes containing magnetic stir bars and incubated for three minutes to equilibrate the sample to 37° C. 25 μl of agonist was added to each cuvette and the aggregation profile was monitored until a plateau was achieved. Results were tabulated in terms of maximal aggregation level. Under some reaction conditions, reversible aggregation was observed. This was most commonly observed with ADP and arachidonic acid-induced aggregation in the presence of ticagrelor or cilostazol. Final aggregation levels were also tabulated.

[3] = non-aspirinized plasma, ADP 10 μM
[4] = non-aspirinized plasma, Chrono Log collagen 10 μg/mL

| Molecule | detection of the drug by synthetic collagen LTAA [1] | ability to detect the drug in the presence of aspirin [2] | anti-platelet effect in arachidonic acid-induced aggregation ([2]; aspirinized plasma) | effect on ADP-induced aggregation [2, 3] | effect on biological collagen-induced aggregation ([2]; non-aspirinized plasma) | effect on Bio/Data collagen-induced aggregation ([2]; non-aspirinized plasma) | effect on Chrono Log collagen-induced aggregation [2, 4] | effect on arachidonic acid-induced aggregation ([2]; non-aspirinized plasma) | antiplatelet effect in synthetic collagen-induced aggregation at lower concentrations ([2]; non-aspirinized plasma) | effect on 64 ng/mL synthetic collagen-induced aggregation ([2]; non-aspirinized plasma) | further results |
| --- | --- | --- | --- | --- | --- | --- | --- | --- | --- | --- | --- |
| CCCSc1nc(N[C@@H]2C[C@H]2c2ccc(F)c(F)c2)c2nnn([C@@H]3C[C@H](OCCO)[C@@H](O)[C@H]3O)c2n1 [ticagrelor, (1S,2S,3R,5S)-3-[7-[[(1R,2S)-2-(3,4-difluorophenyl)cyclopropyl]amino]-5-propylsulfanyltriazolo[4,5-d]pyrimidin-3-yl]-5-(2-hydroxyethoxy)cyclopentane-1,2-diol] | the assays worked with both | affected the ability; also recorded: can be detected | no longer observed | strongly inhibited; also recorded: inhibited | little effect | Neither Bio/Data collagen, Chrono Log collagen nor 64 ng/mL synthetic collagen was markedly impacted | Neither Bio/Data collagen, Chrono Log collagen nor 64 ng/mL synthetic collagen was markedly impacted | inhibited to a similar extent | could be identified; also recorded: readily apparent | Neither Bio/Data collagen, Chrono Log collagen nor 64 ng/mL synthetic collagen was markedly impacted; also recorded: minimal effect | effect of aspirin dose on ticagrelor's inhibition of platelet aggregation (platelet aggregation): reduce the ability of ticagrelor to inhibit platelet aggregation; anti-platelet effect in 8 ng/mL synthetic collagen-induced aggregation ([2]; aspirinized plasma): no longer observed; anti-platelet effect in 16 and 32 ng/mL synthetic collagen-induced aggregation ([2]; aspirinized plasma): reduced; effect of adding aspirin on the drug's ADP-induced aggregation response ([2]; aspirinized plasma, ADP 10 μM): did not affect |
| CC(=O)Oc1ccccc1C(=O)O [aspirin, 2-acetyloxybenzoic acid] | – | – | – | – | – | – | – | – | – | – | effect of aspirin on ADP-induced aggregation ([2]; 10 μM ADP): minimally affected; effect of aspirin on Chrono Log collagen-induced aggregation ([2]; 10 μg/mL Chrono Log collagen): did not inhibit; also recorded: not inhibited; effect of aspirin on Bio/Data collagen-induced aggregation ([2]; 0.19 mg/mL Bio/Data collagen): minimally affected; also recorded: not inhibited; effect of aspirin on synthetic collagen-induced aggregation ([2]; all synthetic collagen concentrations tested (8-64 ng/mL)): lower levels of aggregation; also recorded: higher sensitivity to aspirin; arachidonic acid-induced aggregation in aspirinized plasma ([2]; aspirin taken orally <48 hours before draw or 100 μM in vitro, no other drug): < 20%; response to arachidonic acid in aspirinized plasma ([2]; aspirin taken orally or 100 μM in vitro): nearly completely blunted |
| O=C1CCc2cc(OCCCCc3nnnn3C3CCCCC3)ccc2N1 [cilostazol] | – | negated the ability to detect cilostazol; also recorded: affected the ability | – | minimally affected; also recorded: weaker, concentration-dependent inhibition | unaffected | did not inhibit | did not inhibit | strongly inhibited | could be observed; also recorded: readily apparent | did not inhibit; also recorded: minimal effect | – |
| B1 | the assays worked with both | readily detectable | complete inhibition | inhibited | inhibited | – | – | most sensitive; also recorded: inhibited | most sensitive; also recorded: readily apparent | inhibited by abciximab to a comparable degree | inhibition of Chrono Log collagen-induced aggregation ([2]; aspirinized PRP compared with non-aspirinized, Chrono Log collagen 10 μg/mL): stronger inhibition; concentration at which inhibition of Bio/Data collagen-induced aggregation was observed ([2]; non-aspirinized plasma): 5 µg/mL; concentration at which inhibition of Chrono Log collagen-induced aggregation was observed ([2]; non-aspirinized plasma): 5 μg/mL; inhibition of agonist-induced aggregation ([2]; non-aspirinized plasma, concentration range tested 1.25-5 μg/mL): concentration-dependent inhibition |
